Measured values as given in patent US6692754B1, “Cosmetic composition” (Kyowa Hakko Kogyo Co., Ltd., priority 1999, dated 2004).

Experiments:
[1] = system: skin of cubital fossa of healthy female panelists; assay: Evaluation of moisture retention function (1): continuous application, skin conductivity (SKICON-200); format: in vivo, human
Procedure: Change in the moisture retention function by continuous use was examined for the evaluation of the skin quality-improving effect of Compositions (1)-(8) prepared in Examples 1-8. The compositions are applied to the test part/cubital fossa of 4 healthy female panelists in 23-28 years old in an amount of 2 μl/cm^2 twice a day in the morning and evening for 3 weeks or 2 months. Moisture content in the test part before the application of the cosmetic composition was measured in the morning with the elapse of time. The probe was contacted vertically on the test part, and the skin conductivity (=moisture content) was assayed with SKICON-200 (manufactured by IBS) as a measuring machine. When the measured value is high, it means that the moisture content is high. Change in the skin conductivity (relative conductivity) on the test part was calculated according to the following formula 3, as a relative value to the change in the conductivity on the non-treated part. [formula]

[2] = system: epidermal keratinized cells derived from human neonate; assay: Human epidermal cell proliferation activity (MTT method); format: cell-based; settings: for Epidermal Cell Proliferation Activity: 4 days, 0 mM = 100
Procedure: The human epidermal cell proliferation activity was assayed according to MTT method [Cell Culture III, 4477-4482 (1984)] by incorporating 3-(4,5-dimethylthiazol-2-yl)-2,5-diphenyltetrazolium bromide (MTT) into cells and measuring the resultant MTT formazan by colorimetry at the wave length of 570 nm (Reference, 650 nm).
That is, epidermal keratinized cells derived from human neonate (Sanko Junyaku Co., Ltd.) was cultivated in KGM medium (Sanko Junyaku Co., Ltd.) in an atmosphere of 5% CO2 at 37° C. by the stationary phase, mixed with Hyp and N-Acetyl-Hyp and cultivated for 4 days. Then, the culture broth was mixed with 1/10 volume of 5 mg/ml MTT reagent in a phosphate buffer (pH 7.4, free of calcium and magnesium), and cultivated in an atmosphere of 5% CO2 at 37° C. for 4 hours. After removing the medium, MTT formazan in the cell was extracted with isopropanol containing 0.4 mol/L hydrochloric acid, and the absorbance at 570 nm was measured in comparison with that of 630 nm.

[3] = system: Fibroblast derived from human neonate; assay: Collagen synthesis promotion activity in human fibroblast (3H-glycine incorporation, collagenase digestion); format: cell-based; settings: for Collagen Synthetic Promotion Activity: 72 hours, relative to control (0 mM = 100); for Collagen synthetic promotion activity (in words): human fibroblast
Procedure: Assay of synthetic collagen was conducted by the following method according to “Experimental Method of Collagen” (Written by Nagai, et al., Kodansha Scientific).
Fibroblast derived from human neonate (Sanko Junyaku Co., Ltd.) was cultivated in DMEM medium [Virology, 8, 396 (1959)] containing 10% fetal bovine serum under conditions of 5% CO2 at 37° C. by the stationary phase. ^3H marked glycine and a test compound was added thereto, and further cultivated for 72 hours. DMEM medium was prepared by mixing Dulbecco's Modified Eagle's Medium “Nissui” (2) (manufactured by Nissui Pharmaceutical) with 4 mmol/L glutamine, an optimum dose of sodium hydrogencarbonate, 10 mmol/L HEPES, 50 U/ml penicillin G potassium, 50 μg/ml streptomycin and 10% fetal bovine serum.
To the resultant culture broth was added 500 μmol/L phenylmethanesulfonyl fluoride (PMSF), and the cells and medium were recovered, crashed with a sonicater and the protein was extracted.
To the extract were added 100 μmol/L bovine serum albumin (BSA) and 10% trichloroacetic acid (TCA), and the resultant mixture was centrifuged at 3000 rpm for 5 minutes to recover the precipitate.
To the precipitate was added 0.2 mol/L sodium hydroxide at a density of 8 μl per 1 cm^2 of the bottom area of culture vessel used for said cultivation, and the resultant mixture was neutralized with an equivalent amount of 1 mol/L phosphate buffer.
To 100 μl of the resultant protein solution were added 25 mmol/L calcium chloride (10 μmol/L), 62.5 mmol/L N-ethylmaleimide (20 μmol/L) and 20 units of collagenase (manufactured by Wako Pure Chemical Industries, Ltd.; for analyzing the collagen), and the resultant mixture was allowed to react at 37° C. for 90 minutes.
The reaction mixture was filtered with an ultrafilter (molecular weight: 10,000), and the protein fraction of the filtrate was subjected to radiation activity (CDP) assay, which was assigned as freshly prepared collagen. The radiation activity (NCDP) of the non-filtered protein fraction was assayed, and collagen synthetic ratio was calculated according to the following formula 1.
Relative collagen synthetic promotion activity (change in the collagen synthesis) was calculated according to the following formula 2, comparing with the relative value of the collagen synthetic ratio of the test compounds against control. [formula] [formula]

mouse epidermal cells = assay: Mouse epidermal cell proliferation activity (MTT); format: cell-based, C3H mouse; settings: for Epidermal Cell Proliferation Activity: 6 days, 0 μM = 100
Procedure: Epidermis was peeled from 3 days old C3H mouse according to Method of Tanigaki, et al., [The Japanese Journal of Dermatology, 1145-1152 (1989)].
The epidermis was treated with 0.25% trypsin and centrifuged at 1500 rpm for 5 minutes to obtain the cells. The cells were inoculated onto DMEM medium containing 10% fetal bovine serum and cultivated at 37° C. for 1 day to give the mouse epidermal cells.
The mouse epidermal cells were cultivated on MCDB 153 medium free of serum containing the test compound (Hyp or N-Acetyl-Hyp) for 6 days, mixed with 1/10 volume of 5 mg/ml MTT reagent in phosphate buffer (pH 7.4, free of calcium and magnesium), and then cultivated in an atmosphere of 5% CO2 at 37° C. for 4 hours. After removing the medium, MTT formazan in the cell was extracted with isopropanol containing 0.4 mol/L hydrochloric acid, and the absorbance at 570 nm was measured in comparison with that of 630 nm.

[4] = system: skin of cubital fossa of healthy female panelists; assay: Evaluation of moisture retention function (2): single application, skin conductivity; format: in vivo, human
Procedure: Concentration dependency on moisture retention effect of N-Acetyl-Hyp was evaluated by the single application. The moisture retention was assayed on the test part/cubital fossa of 12 healthy female panelists in 23-32 years old, and each of the test compositions was applied thereto in an amount of 2 μl/cm^2 and allowed to leave. Three hours later, the moisture content of the test part was measured, and the moisture retention effect was evaluated in terms of the relative conductivity when the moisture content before the application was defined as 100%.

SMILES | Skin moisture content / moisture retention function on continuous application (in words) [1] | Concentration dependence of proliferation activity [2] | Epidermal cells proliferation activity (in words) [2] | Epidermal Cell Proliferation Activity ([2]; 10 mM) | Epidermal Cell Proliferation Activity ([2]; 100 mM) | Collagen Synthetic Promotion Activity ([3]; 0.1 mM test compound) | Collagen Synthetic Promotion Activity ([3]; 1 mM test compound) | Collagen synthetic promotion activity (in words) [3] | Epidermal proliferation activity (in words) (mouse epidermal cells) | Epidermal Cell Proliferation Activity (mouse epidermal cells; 1 μM) | Epidermal Cell Proliferation Activity (mouse epidermal cells; 3 μM) | Epidermal Cell Proliferation Activity (mouse epidermal cells; 10 μM) | Moisture retention improving effect compared with collagen [1] | Relative Conductivity ([4]; 1% N-Acetyl-Hyp, single application 2 μl/cm2, three hours later, before application = 100%) [%] | Relative Conductivity ([4]; 3% N-Acetyl-Hyp, single application, three hours later) [%] | Relative Conductivity ([4]; 5% N-Acetyl-Hyp, single application, three hours later) [%] | Relative Conductivity ([4]; 10% N-Acetyl-Hyp, single application, three hours later) [%] | Moisture retention effect by single treatment (in words) ([4]; single treatment)
O=C(O)[C@@H]1C[C@@H](O)CN1 [Hyp, trans-4-hydroxy-L-proline] | an improvement in the moisture retention function was observed | Proliferation activity depending on the concentration was found | observed | 111.6 | 135.1 | 108.3 | 117.1 | observed | found | 88.6 | 107.5 | 126 |  |  |  |  |  | 
CC(=O)N1C[C@H](O)C[C@H]1C(=O)O [N-Acetyl-Hyp, N-acetyl-trans-4-hydroxy-L-proline] | an improvement in the moisture retention function was observed |  | observed | 108.7 | 85.9 | 121.1 | 119.7 | observed | found | 110.7 | 118.2 | 121.9 | an improving effect exceeding that of collagen was observed | 100 | 129 | 186 | 189 | concentration dependent-moisture retention effect
